Test results from patent US8283337B2, “Therapeutic or prophylactic agent for vasoconstriction” (Next21 K.K., priority 2007, dated 2012).

Tests used:
[1] = test system: rat macrophage-like cells (RAW264.7); assay: Vasospastic cell model, PGE2/PGD2 production by ELISA after erythrocyte lysis solution; type: cell-based; conditions: blood pretreated with 10 wt % sugar, medium 5 wt % sugar, lysis solution 18 hours
Method: A vasospastic cell model was constructed by using […] macrophage-like cells (RAW264.7) for study on whether trehalose has anti-inflammatory action.
Physiological saline (Sal), 10 wt % trehalose (Tre) and 10 wt % maltose (Mal) were added respectively to the blood collected from a rat (10 to 12 weeks of age, male) for pretreatment, and the mixture was processed in an ultrasonic homogenizer, to prepare an erythrocyte lysis solution. 1×10^6 or 2×10^6 of RAW264.7 cells were inoculated on a plate on the day before addition of the lysis solution, and were cultured in a medium comprising physiological saline, 5 wt % trehalose and 5 wt % maltose (respectively, as abbreviated to Sal, Tre and Mal) placed in an incubator (37° C., CO2: 5%). The culture medium used was Dulbecco's Modified Eagle Medium (D-MEM) comprising 10% fetal bovine serum (FBS), penicillin and streptomycin. The next day, the lysis solution was added in an amount of 1/10 of the medium, and the mixture was incubated in the incubator (37° C., CO2: 5%) for 18 hours. Then, the cells were washed with PBS; new medium was added; and the mixture was placed in the incubator (37° C., CO2: 5%). The medium was collected after one hour for ELISA analysis. The ELISA was carried out by using Prostaglandin E2 EIA kit-monoclonal (manufactured by Cayman) or Prostaglandin D2 EIA kit (manufactured by Cayman). […] For control, a lysis solution-untreated group (added respectively with physiological saline, trehalose and maltose) was also analyzed similarly (FIG. 8, FIG. 9: right column 3). Three or more independent tests were carried out to obtain the average, and the standard deviation obtained was expressed with error bars.

[2] = test system: normal human umbilical vein endothelial cells (HUVEC); assay: Vasospastic cell model, PGE2 production by ELISA after erythrocyte lysis solution; type: cell-based; conditions: lysis solution from blood pretreated with 10 wt % sugar, 6 hours
Method: A vasospastic cell model was constructed by using normal human umbilical vein endothelial cells (HUVEC), for study on whether trehalose has anti-inflammatory action.
Physiological saline (Sal), 10 wt % trehalose (tre) and 10 wt % maltose (Mal) were added respectively to the bloods collected from a rat (10 to 12 weeks of age, male) for pretreatment, and the mixture was processed in an ultrasonic homogenizer, to prepare an erythrocyte lysis solution. The HUVEC cells were inoculated on a plate in an amount of 1×10^5 cells on the day before the addition of the lysis solution and were cultured in an incubator (37° C., CO2: 5%). The culture medium used was endothelial cell basic medium (EBM-2) comprising 2% fetalbovine serum (FBS), hEGF (human epidermal growth factor), heparin, hydrocortisone, ascorbic acid, VEGF (vascular endothelial growth factor), R3-IGF-1 (recombinant insulin-like growth factor-1), gentamicin and amphotericin-B. The next day, the lysis solution in an amount of 1/10 of the medium was added to the HUVEC cells, and the mixture was incubated in an incubator (37° C., CO2: 5%) for 6 hours. The medium was then collected for ELISA analysis. […] The lysis solution-untreated group (added respectively with physiological saline, trehalose and maltose) was also analyzed similarly as a control group (FIG. 10: right column 3). […]

cerebral vasospasm = assay: Rabbit subarachnoid hemorrhage model, intracerebral blood flow by perfusion-MRI; type: in vivo; conditions: group II, self blood + 15 wt % trehalose solution into cisterna magna, two days after second administration; blood + saline group approximately 60%
Method: Intracerebral blood flow was evaluated via perfusion-MRI method by using a rabbit subarachnoid hemorrhage model for analysis of the vasospasm-inhibiting action of trehalose.
After magnetic resonance imaging (MRI) of a NZW rabbit (14 weeks of age, approximately 3.0 kg, male) in the normal state, the occipital region was shaved and the cisterna magna was punctured, and blood samples [group I: self blood+physiological saline (blood+Sal), group II: self blood+15 wt % trehalose solution (blood+Tre) and group III: physiological saline (Sal)] were injected into different test animals respectively in an amount of 3 ml. Additionally, 2 ml of blood sample and physiological saline (total of 5 ml) were injected to the same test animals by a similar method, two days later. Two days after the second administration, the influence of trehalose on cerebral vasospasm was evaluated via perfusion-MRI method (cerebrovascular normality is calculated by injecting a contrast medium through otic vein into the brain and determining the degree of recovery in brightness quantitatively) by using a high-definition MRI apparatus for animals (4.7 tesla, resolution: 50 μm) manufactured by Varian. Three independent tests were carried out to obtain the average, and the standard deviation obtained was expressed with error bars.

femoral artery = assay: Vasospasm model using rat femoral artery exposed to self blood; type: in vivo; conditions: 7 days after exposure; for arterial sectional area relative to saline-exposed artery: SD rat femoral artery
Text: Twenty seven male SD rats of 10 weeks of age were divided into three groups randomly. These rats were properly anesthetized. The groin was cut open and then the femoral artery was divided and separated sufficiently from the surrounding soft tissue etc. The femoral artery was covered with a catheter. The catheter used was a 10 mm-length vinyl chloride cylindrical catheter. Self blood collected from femoral vein was fed into the space between the catheter and vascular adventitia and the bottom face of the cylinder was sealed with an adhesive agent. The adhesive agent used was a cyanoacrylate-based adhesive agent. The operations above were carried out aseptically and surgically. Then, the surgical injury was closed. The lumen of the blood-exposed femoral artery narrowed and the tunica intima and tunica media thickened, after peaking in about 7 days after exposure. This model is a model according to “Nakamura et al., Japan Neurosurgical Society, Abstract of 49th Annual Meeting 199, 1990”.
Left and right femoral arteries (FAs) of each rat were exposed to the substances shown in the following Table 1 by using the model above. 4% paraformaldehyde (PFA) solution was perfused, 7 days after commencement of exposure and each femoral artery was fixed and collected. The collected femoral artery (FA) was immersed in 4% PFA, and part of the femoral artery was immersed in sucrose solution and then embedded as frozen. A section of 5 μm in thickness was obtained with cryostat from the frozen femoral artery thus obtained. The section was subjected to hematoxylin-eosin staining (HE staining). The HE-stained sample was analyzed by using an image analyzer equipped with an image analysis program, and the sectional area of the lumen and the thickness of the tunica media in each tissue were determined. The radius of the blood vessel was determined from the peripheral length of the lumen of the blood vessel, and the lumen sectional area was calculated from it. In addition, the distance between the internal and external elastic layers was measured at four points, and the average thereof was determined, to obtain the thickness of the tunica media. There were cases when the blood vessel was cleaved or was not sufficiently fixed during analysis, and thus 6 samples, which were analyzed under favorable conditions, among 9 samples prepared in each group, were selected for collection of data.

basilar artery = assay: Rabbit subarachnoid hemorrhage model, histological analysis of basilar artery; type: in vivo; conditions: group II, self blood + 15 wt % trehalose solution
Method: The vasospasm-inhibiting action of trehalose was analyzed via a histological method by using a rabbit subarachnoid hemorrhage model.
After the occipital region of a NZW rabbit (14 weeks of age, approximately 3.0 kg, male) was shaved and the cisterna magna was punctured, blood samples [group I: self blood+physiological saline (blood+Sal), group II: self blood+15 wt % trehalose solution (blood+Tre) and group III: physiological saline (Sal)] were injected into different test animals respectively in an amount of 3 ml. Additionally, 2 ml of blood sample and physiological saline (total of 5 ml) were injected to the same test animal by a similar method, two days later. Two days after the second administration, the animals were perfused with 4% paraformaldehyde for stabilization, and the brain stem and the basilar arteries were collected. The tissue was embedded in paraffin, cut into a section of 5 μm in thickness, and observed after hematoxylin-eosin staining (HE staining) The results are shown in FIG. 12.

[3] = two days after second administration

Row | SMILES | amount of PGD2 produced versus lysis solution-untreated control group [1] | amount of PGE2 produced versus lysis solution-untreated control group [1] | PGE2 production (induction of inflammatory reaction) versus lysis solution-untreated control group [2] | normality of cerebral blood vessel (brightness after treatment/before treatment), physiological saline group = 100% (cerebral vasospasm) | arterial sectional area relative to saline-exposed artery (femoral artery; group II, trehalose 3.75 wt % (blood:15% TL solution = 3:1)) [%] | tunica media thickness (after exposure to blood + trehalose / after exposure to physiological saline) (femoral artery; group II, trehalose 3.75 wt %) [times] | arterial sectional area relative to saline-exposed artery (femoral artery; group III, trehalose 7.5 wt % (blood:30% TL solution = 3:1)) [%] | tunica media thickness (after exposure to blood + trehalose / after exposure to physiological saline) (femoral artery; group III, trehalose 7.5 wt %) [times] | vasospasm with respect to group I (self blood + physiological saline) (basilar artery; basilar artery histology) | blood vessel diameter of basilar artery (HE staining) (basilar artery; [3]) | tunica media thickness of basilar artery (HE staining) (basilar artery; [3])
1 | OC[C@H]1O[C@H](O[C@H]2[C@H](O)[C@@H](O)C(O)O[C@@H]2CO)[C@H](O)[C@@H](O)[C@@H]1O (mixture of isomers) [maltose, reference compound] | inflammatory reaction was also induced | inflammatory reaction was also induced | inflammatory reaction was induced | – | – | – | – | – | – | – | –
2 | OC[C@H]1O[C@H](O[C@H]2O[C@H](CO)[C@@H](O)[C@H](O)[C@H]2O)[C@H](O)[C@@H](O)[C@@H]1O [trehalose] | not increased | not increased | induction of inflammatory reaction was suppressed | approximately 80% | 86 | 0.93 | 39 | 1.74 | suppressed definitely | no reduction of the blood vessel diameter | some increase in tunica media thickness
